Measurements taken from patent US20230250077A1, “SULFONYLBENZAMIDE DERIVATIVE AND CONJUGATE THEREOF, PREPARATION METHOD THEREFOR AND USE THEREOF” (Jiangsu Hengrui Pharmaceuticals Co., Ltd., priority 2020, published 2023).
“Also recorded” adds a separate entry of the source. Marks after values point to notes of the source that are not given here.

Test system: SD rats
Assay: Toxicity test on SD rats by repeated intravenous administrations for 7 days
Assay type: in vivo, rat
Settings: 1 mg/kg intravenously qd
Method: This experiment was performed to evaluate the toxicity of compound 9 and AZD4320 to SD rats by repeated intravenous administrations for 7 days.
30 SD rats, weighing about 180-200 g and aged 6-7 weeks, half male and half female, purchased from Zhejiang Vital River Laboratory Animal Technology Co., Ltd., SPF grade. Animal certification number: 200917Aazz0619000298 and 20200917Aazz0619000104. Production license number: SCXK (Zhejiang) 2019-0001.
Housing conditions: SPF grade, animals were housed in plastic and transparent rat cages, 2-3 per cage. The room temperature was 20-26° C. and the relative humidity was 40%-70%. The illumination was controlled in a 12/12 light/dark cycle. The granulated feed for mice was freely taken in an unlimited amount.
The rats were randomly divided into the following 3 groups: a vehicle control group, a compound 9-1 mg/kg group and a compound AZD4320-1 mg/kg group, with 6 rats in each group, half male and half female.
Dosage of the test sample for the 7-day toxicity test in rats: 1 mg/kg (qd), for 7 consecutive days. Administration route: intravenously, dosing volume: 10 mL/kg, dosing frequency and dosing period: daily in the morning for 7 days.
Vehicle: 1.5% DMA+98.5% (10% HS-15), wherein DMA is N,N-dimethylacetamide (Shanghai Titan Scientific Co., Ltd., Cat #01013630); and HS-15 is polyethylene glycol stearate 15 (Solutol HS15) (Shanghai Xietai Chemical Co., Ltd., Cat #50253404).
Hitachi 7100 automatic biochemical analyzer
Siemens advia 2120i automatic blood cell analyzer
Sysmex ca1500 automatic coagulation analyzer
The detection results were input and statistically processed by Excel of the computer.
Clinical symptoms, food intake and general visual observation results of dissection were not statistically calculated, and indexes such as body weight, organ weight and clinical examination were counted by using T-test.
SD rats were intravenously administered with 1 mg/kg compound 9 or 1 mg/kg AZD4320 at 5 mL/kg for 7 repeated days.

## O=C(NS(=O)(=O)c1ccc(N[C@@H](CSc2ccccc2)C[C@@H]2CCCN2CCO)c(S(=O)(=O)C(F)(F)F)c1)c1ccc(N2CCC([C@@H](O)c3ccccc3-c3ccc(Cl)cc3)CC2)cc1 [Example 2-9, 4-(4-((R)-(4′-chloro-[1,1′-biphenyl]-2-yl)(hydroxy)methyl)piperidin-1-yl)-N-((4-(((R)-1-((S)-1-(2-hydroxyethyl)pyrrolidin-2-yl)-3-(phenylthio)propan-2-yl)amino)-3-((trifluoromethyl)sulfonyl)phenyl)sulfonyl)benzamide]
  Clinical observation of the animals during treatment: No significant abnormalities
  PLT (10^9/L): 1,258.67* 10^9/L
Vs vehicle control, listed as compound 9, 1 mg/kg
  Effect on platelets (in words): slightly reduced but within the background normal range; also recorded: reduces platelets less than the positive control group
